# Laboratory results as given in ChEMBL document CHEMBL5465560, “Selectivity Literature for EUbOPEN Chemogenomic Library” (2024).
# Experiments:
# [1] = target: Cyclin-dependent kinase 2 (Homo sapiens, UniProt P24941); assay: Selectivity interaction (KinomeScan (DiscoverX)) EUB0001049a CDK2; conditions: at 1 µM
# [2] = target: Mitogen-activated protein kinase 9 (Homo sapiens, UniProt P45984); assay: Selectivity interaction (Millipore kinase profiler) EUB0000124b MAPK9; conditions: at 10 µM
# [3] = target: T1, Serine/threonine-protein kinase PLK4 (Homo sapiens) (UniProt O00444); assay: Selectivity interaction (Kinase panel (DSF assay)) EUB0001559a PLK4
# T1 sequence (whole entry): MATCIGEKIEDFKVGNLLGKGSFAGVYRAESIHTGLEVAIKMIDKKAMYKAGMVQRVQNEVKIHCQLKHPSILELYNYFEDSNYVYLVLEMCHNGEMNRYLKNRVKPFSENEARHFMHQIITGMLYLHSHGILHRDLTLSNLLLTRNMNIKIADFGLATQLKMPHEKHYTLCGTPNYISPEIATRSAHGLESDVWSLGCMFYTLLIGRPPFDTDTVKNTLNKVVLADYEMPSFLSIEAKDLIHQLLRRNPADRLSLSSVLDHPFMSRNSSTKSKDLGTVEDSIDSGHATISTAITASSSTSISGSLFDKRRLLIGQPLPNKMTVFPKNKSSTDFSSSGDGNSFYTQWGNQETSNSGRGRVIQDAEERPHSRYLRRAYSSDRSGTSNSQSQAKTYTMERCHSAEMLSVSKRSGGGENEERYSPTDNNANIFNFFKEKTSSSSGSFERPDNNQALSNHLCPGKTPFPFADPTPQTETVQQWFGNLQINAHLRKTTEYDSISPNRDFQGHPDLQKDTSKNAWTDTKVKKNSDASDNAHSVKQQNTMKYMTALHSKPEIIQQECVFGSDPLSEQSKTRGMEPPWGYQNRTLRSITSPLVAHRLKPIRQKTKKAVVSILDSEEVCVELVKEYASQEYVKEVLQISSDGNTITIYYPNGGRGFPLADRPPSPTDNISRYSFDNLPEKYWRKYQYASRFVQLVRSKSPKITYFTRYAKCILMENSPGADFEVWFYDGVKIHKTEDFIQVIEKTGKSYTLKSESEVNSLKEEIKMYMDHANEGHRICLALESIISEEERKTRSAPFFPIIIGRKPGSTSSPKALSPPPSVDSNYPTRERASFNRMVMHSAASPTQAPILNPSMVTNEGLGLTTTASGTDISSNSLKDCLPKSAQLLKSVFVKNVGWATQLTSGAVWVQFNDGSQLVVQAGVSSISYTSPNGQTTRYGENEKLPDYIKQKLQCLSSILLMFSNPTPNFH
# [4] = target: T2, STE20-related kinase adapter protein alpha (Homo sapiens) (UniProt Q7RTN6); assay: Selectivity interaction (ActivX KiNativ screen (kinase selectivity in THP-1 cell lysates)) EUB0000639a STRADA; assay type: subcellular; conditions: lysate, at 0.01 µM
# T2 sequence (whole entry): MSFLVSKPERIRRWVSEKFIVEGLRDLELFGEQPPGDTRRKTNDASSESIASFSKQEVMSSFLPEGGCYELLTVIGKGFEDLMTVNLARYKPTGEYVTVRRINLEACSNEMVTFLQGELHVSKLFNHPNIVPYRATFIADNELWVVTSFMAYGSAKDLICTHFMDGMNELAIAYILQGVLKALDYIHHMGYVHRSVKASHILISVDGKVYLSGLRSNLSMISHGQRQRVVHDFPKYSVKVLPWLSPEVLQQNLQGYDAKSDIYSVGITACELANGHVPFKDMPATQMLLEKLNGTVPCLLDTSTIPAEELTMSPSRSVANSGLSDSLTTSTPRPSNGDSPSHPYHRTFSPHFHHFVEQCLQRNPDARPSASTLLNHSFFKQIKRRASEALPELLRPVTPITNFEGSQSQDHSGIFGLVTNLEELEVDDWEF
# [5] = target: Cyclin-dependent kinase 8 (Homo sapiens, UniProt P49336); assay: Selectivity interaction (Kinase panel (Invitrogen)) EUB0000639a CDK8; conditions: at 200 nM
# Sequence of Cyclin-dependent kinase 8 (P49336 whole entry): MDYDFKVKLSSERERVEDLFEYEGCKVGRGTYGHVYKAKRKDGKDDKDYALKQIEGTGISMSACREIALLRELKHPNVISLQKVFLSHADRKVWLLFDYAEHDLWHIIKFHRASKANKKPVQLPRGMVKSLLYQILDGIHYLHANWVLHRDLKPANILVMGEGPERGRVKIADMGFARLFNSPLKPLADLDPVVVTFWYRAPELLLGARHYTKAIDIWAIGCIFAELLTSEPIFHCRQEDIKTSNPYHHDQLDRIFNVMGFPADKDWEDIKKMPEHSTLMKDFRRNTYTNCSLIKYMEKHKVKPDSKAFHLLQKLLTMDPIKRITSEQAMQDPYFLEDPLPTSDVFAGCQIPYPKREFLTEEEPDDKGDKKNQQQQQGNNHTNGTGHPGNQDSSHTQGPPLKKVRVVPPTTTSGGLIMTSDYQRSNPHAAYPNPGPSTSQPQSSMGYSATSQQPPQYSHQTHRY
# [6] = target: Serine/threonine-protein kinase mTOR (Homo sapiens, UniProt P42345); assay: Selectivity interaction (KinomeScan (DiscoverX)) EUB0000655a MTOR; conditions: at 10 µM
# [7] = target: T3, Serine/threonine-protein kinase STK11 (Homo sapiens) (UniProt Q15831); assay: Selectivity interaction (KinomeScan (DiscoverX)) EUB0000695a STK11; conditions: at 100 nM
# T3 sequence (whole entry): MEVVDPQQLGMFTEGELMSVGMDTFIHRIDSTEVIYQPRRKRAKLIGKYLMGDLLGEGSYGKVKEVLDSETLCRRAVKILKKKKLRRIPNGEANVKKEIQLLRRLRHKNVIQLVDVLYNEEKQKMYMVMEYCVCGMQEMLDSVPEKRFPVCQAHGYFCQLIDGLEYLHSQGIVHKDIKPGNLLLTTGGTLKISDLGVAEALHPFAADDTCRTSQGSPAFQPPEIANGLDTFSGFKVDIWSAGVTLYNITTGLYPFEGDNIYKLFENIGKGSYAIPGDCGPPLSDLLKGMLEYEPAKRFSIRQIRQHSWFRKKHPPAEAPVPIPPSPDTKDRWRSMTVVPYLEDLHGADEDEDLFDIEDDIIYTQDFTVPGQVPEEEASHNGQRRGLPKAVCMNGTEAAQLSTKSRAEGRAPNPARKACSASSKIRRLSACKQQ
# [8] = target: Serine/threonine-protein kinase PAK 6 (Homo sapiens) (UniProt Q9NQU5); assay: Selectivity interaction (SelectScreen profiling (Invitrogen)) EUB0000607a PAK6; conditions: at 2 µM
# Sequence of Serine/threonine-protein kinase PAK 6 (Homo sapiens) (Q9NQU5 whole entry, looked up): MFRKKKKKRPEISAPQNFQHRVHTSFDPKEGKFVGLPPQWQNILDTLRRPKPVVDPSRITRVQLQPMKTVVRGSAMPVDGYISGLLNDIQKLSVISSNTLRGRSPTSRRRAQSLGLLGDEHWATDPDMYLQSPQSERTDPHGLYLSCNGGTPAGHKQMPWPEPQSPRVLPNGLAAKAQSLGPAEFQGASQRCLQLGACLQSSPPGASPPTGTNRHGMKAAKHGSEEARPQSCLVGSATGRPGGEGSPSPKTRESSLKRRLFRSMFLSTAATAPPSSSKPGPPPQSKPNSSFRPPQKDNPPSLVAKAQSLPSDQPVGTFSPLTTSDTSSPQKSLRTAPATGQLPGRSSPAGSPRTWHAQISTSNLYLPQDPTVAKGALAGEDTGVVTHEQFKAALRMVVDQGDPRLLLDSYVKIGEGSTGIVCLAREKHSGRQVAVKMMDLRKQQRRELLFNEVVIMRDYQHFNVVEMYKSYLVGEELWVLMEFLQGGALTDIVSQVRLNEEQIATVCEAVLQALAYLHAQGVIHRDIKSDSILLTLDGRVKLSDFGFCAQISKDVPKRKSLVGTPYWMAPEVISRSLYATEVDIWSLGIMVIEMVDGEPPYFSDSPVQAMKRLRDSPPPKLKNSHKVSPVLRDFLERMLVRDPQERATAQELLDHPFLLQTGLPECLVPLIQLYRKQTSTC
# [9] = target: T4, Membrane-associated tyrosine- and threonine-specific cdc2-inhibitory kinase (Homo sapiens) (UniProt Q99640); assay: Selectivity interaction (ProQinase) EUB0000171b PKMYT1
# T4 sequence (whole entry): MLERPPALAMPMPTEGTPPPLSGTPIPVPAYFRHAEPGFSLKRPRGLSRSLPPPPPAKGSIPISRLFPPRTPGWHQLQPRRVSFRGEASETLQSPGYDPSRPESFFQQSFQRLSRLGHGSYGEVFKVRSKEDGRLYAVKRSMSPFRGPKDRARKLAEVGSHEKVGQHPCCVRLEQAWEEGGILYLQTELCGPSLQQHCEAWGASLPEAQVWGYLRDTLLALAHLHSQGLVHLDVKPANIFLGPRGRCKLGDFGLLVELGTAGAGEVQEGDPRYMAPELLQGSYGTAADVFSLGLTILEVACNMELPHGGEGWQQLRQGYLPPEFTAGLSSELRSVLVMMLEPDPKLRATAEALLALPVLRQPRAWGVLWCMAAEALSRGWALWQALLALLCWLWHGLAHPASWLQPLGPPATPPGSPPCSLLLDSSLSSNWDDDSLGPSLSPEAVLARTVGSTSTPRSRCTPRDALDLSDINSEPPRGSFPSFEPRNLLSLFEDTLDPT
# Sequence of Mitogen-activated protein kinase 9 (P45984 whole entry, looked up): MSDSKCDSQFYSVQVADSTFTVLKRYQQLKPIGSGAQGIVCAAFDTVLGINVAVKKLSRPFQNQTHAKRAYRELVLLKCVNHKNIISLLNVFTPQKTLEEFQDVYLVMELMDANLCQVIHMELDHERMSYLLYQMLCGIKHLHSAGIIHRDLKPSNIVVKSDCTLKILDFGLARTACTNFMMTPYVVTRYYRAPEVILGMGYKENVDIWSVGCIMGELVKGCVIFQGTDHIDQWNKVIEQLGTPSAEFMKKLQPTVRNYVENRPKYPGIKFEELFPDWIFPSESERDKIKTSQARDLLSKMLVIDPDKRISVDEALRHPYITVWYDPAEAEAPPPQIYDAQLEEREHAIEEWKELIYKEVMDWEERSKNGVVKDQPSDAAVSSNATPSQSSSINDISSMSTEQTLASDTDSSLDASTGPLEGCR
structure (smiles),measurement,setting,value
COc1cc(Nc2nc(C)cc(-c3cnn4nc(OC)ccc34)n2)cc(C(F)(F)F)c1,% of control,[1],91%
CC(=O)Nc1cccc(-n2c(=O)n(C3CC3)c(=O)c3c(Nc4ccc(I)cc4F)n(C)c(=O)c(C)c32)c1,% of control,[2],97%
CN(C(=O)c1cnn2cccnc12)c1cc2c(cc1N1CCOCC1)C(=O)N(C[C@@H](F)C(C)(C)O)C2,dTM,[3],-0.4 K
CC[C@@H]1[C@H](F)C(=O)N[C@@H]1COc1nccc2cc(C(N)=O)c(OC)cc12 [ZIMLOVISERTIB],% of inhibition,[4],-6.5%
same,% of inhibition,[5],40.1%
CN(C)CCOc1ccc(-c2nc(-c3ccncc3)c(-c3ccc4c(c3)CC/C4=N\O)[nH]2)cc1,% of control,[6],75%
Cc1cc(F)c(C(=O)Nc2cccc(-c3nncn3C(C)C)n2)cc1-n1cnc(C2CC2)c1,% of control,[7],80%
CNC(=O)Nc1ccc(-c2nc(N3CC4CCC(C3)O4)c3cnn(C4CCC5(CC4)OCCO5)c3n2)cc1,% of inhibition,[8],9%
C=CC(=O)Nc1cccc(C(=O)Nc2ccc(Nc3cc(-c4[nH]c(SC)nc4C)ccn3)cc2)c1,% of control,[9]; at 1 µM,74%
same,% of control,[9]; at 5 µM,56%
